In patent publication US5959123A, “3,4-Disubstituted azetidin-2-one derivatives useful as cysteine proteinase regulators” (Synphar Laboratories, Inc., priority 1997, dated 1999) one finds IC50 data, which are given here for 13 compounds.

In test [1] the target is cathepsin L (Rattus norvegicus, UniProt P07154). Description: In vitro assay for cathepsin L inhibition. In kind it is biochemical. The note with it: r rat cathepsin L; pH 5.0; 10 min incubation at room temperature; substrate N-CBZ-Phe-Arg-AMC (1 mM, 20 μl). As for the experimental part: To a 170 μl of enzyme-buffer mixture (enzyme: r rat cathepsin L, diluted to give approximate 15 F units/min, buffer: 58.8 mM sodium citrate, 1.18 mM EDTA, 235 mM sodium chloride, 5 mM DTT, pH 5.0) a 10 μL of inhibitor (dissolved in DMSO) was added. After 10 min of incubation at room temperature, a 20 μl of 1 mM substrate (N-CBZ-Phe-Arg-AMC, dissolved in DMSO) was added to initiate reaction. Reading is followed up for 10 min at the fluoroscan reader (excitation at 380 nm emission at 460 nm).
(§1) A plot of percentage of inhibition vs inhibitor concentration is obtained, and IC50 is determined using a linear regression calculation (concentration of inhibitor which will give 50% inhibition).

The target of test [2] is cathepsin B (Rattus norvegicus, UniProt P00787). As to the kind of experiment: In vitro assay for cathepsin B inhibition. The note with it: r rat cathepsin B; pH 5.1; 10 min incubation at room temperature; substrate N-CBZ-Phe-Arg-AMC (5 mM, 20 μl). The test is classed as biochemical. As for the experimental part:
The compounds of formula I were tested for inhibition of cathepsin B using the known method (A. J. Barret et al., Biochem. J. 1982, 201, 189-198). To a 170 μl of enzyme-buffer mixture (enzyme: r rat cathepsin B, diluted to give approximate 10 F units/min, buffer: 56 mM sodium acetate, 1.124 mM EDTA, 10 mM DTT, pH 5.1) a 10 μL of inhibitor (dissolved in DMSO) was added. After 10 min of incubation at room temperature, a 20 μl of 5 mM substrate (N-CBZ-Phe-Arg-AMC, dissolved in DMSO) was added to initiate reaction. Reading is followed up for 10 min at the fluoroscan reader (excitation at 380 nm emission at 460 nm).
as §1

Sequence of cathepsin B (P00787 80-333 limits assumed): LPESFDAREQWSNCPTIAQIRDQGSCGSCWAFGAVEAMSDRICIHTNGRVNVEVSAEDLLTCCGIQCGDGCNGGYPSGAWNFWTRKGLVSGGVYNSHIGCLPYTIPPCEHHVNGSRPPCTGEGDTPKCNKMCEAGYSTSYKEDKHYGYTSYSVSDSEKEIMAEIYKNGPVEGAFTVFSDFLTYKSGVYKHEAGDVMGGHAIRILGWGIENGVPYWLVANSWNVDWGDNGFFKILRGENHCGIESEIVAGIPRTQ
Sequence of cathepsin L (P07154 114-334): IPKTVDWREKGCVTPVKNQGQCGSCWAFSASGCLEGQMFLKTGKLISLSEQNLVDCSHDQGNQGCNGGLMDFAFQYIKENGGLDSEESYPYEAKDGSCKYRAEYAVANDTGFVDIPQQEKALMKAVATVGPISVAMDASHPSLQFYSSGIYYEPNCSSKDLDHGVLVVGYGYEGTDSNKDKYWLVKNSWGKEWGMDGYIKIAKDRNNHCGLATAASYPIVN

As for `CC(=O)O[C@@H]1NC(=O)[C@H]1NC(=O)C1Cc2ccccc2N1C(=O)OCc1ccccc1` (stereo partly drawn) [Example 1, (3S,4S)-3-(1 -N-benzyloxycarbonyl-2-indolinecarbonyl)-amino-4-acetoxy-azetidin-2-one], the IC50 – broadly, the concentration needed to halve the response being measured – is 26.7 µM in test [1] and above 50 µM in test [2].
For `CC(=O)O[C@@H]1NC(=O)[C@H]1NC(=O)[C@H](CCCNC(N)=O)NC(=O)CCc1ccccc1` [Example 23, (3S,4S)-3-{N-(3-phenylpropionyl)-L-citrullinyl}-amino-4-acetoxy-azetidin-2-one], in that order: 11.5 µM and 11 µM.
As to `O=C(CCc1ccccc1)N[C@@H](Cc1ccc2c(c1)OCCO2)C(=O)N[C@@H]1C(=O)N[C@H]1Oc1ccccc1` [Example 31], the IC50 in test [1] came to 0.08 µM; in test [2] it was 9.7 µM.
For `CC(=O)O[C@@H]1NC(=O)[C@H]1NC(=O)[C@H](CCCN=C(N)N[N+](=O)[O-])NC(=O)CCc1ccccc1` [Example 24, (3S,4S)-3-{N^α -(3-phenylpropionyl)-N-nitro-L-arginyl}-amino-4-acetoxy-azetidin-2-one], in that order: 0.0168 µM and 31.4 µM.
For the compound `O=C(N[C@@H](Cc1ccc2ccccc2c1)C(=O)N[C@@H]1C(=O)N[C@@H]1Oc1cccc(N2CCOCC2)c1)OCc1ccccc1` [Example 14B, (3S,4R)-3-{N-benzyloxycarbonyl-β-(2-naphthyl)-L-alanyl}-amino-4-{3-(morpholin-4-yl)-phenoxy}-azetidin-2-one], the IC50 in test [1] came out at 0.0005 µM; in test [2], 0.34 µM.
The like results for `CC(=O)O[C@@H]1NC(=O)[C@H]1NC(=O)[C@H](Cc1ccc2ccccc2c1)NC(=O)NCc1ccccc1` [Example 21, (3S,4S)-3-{N-(benzylaminocarbonyl)-β-(2-naphthyl)-L-alanyl}-amino-4-acetoxy-azetidin-2-one] were, in that order, 0.01 µM and 2.2 µM.
The like results for `O=C(CCc1ccccc1)NC(Cc1ccc2ccccc2c1)C(=O)NC1C(=O)NC1S(=O)(=O)c1ccccc1` [Example 16, (3S,4SR)-3-{N-(3-phenylpropionoyl)-β-(2-naphthyl)-L-alanyl}-amino-4-phenylsulfonyl-azetidin-2-one] were, in that order, 0.0086 µM and 1.6 µM.
The like results for `COc1ccc(C[C@H](NC(=O)OCc2ccccc2)C(=O)N[C@@H]2C(=O)N[C@H]2OC(C)=O)cc1` [Example 10, (3S,4S)-3-{N-benzyloxycarbonyl-β-(4-methoxyphenyl)-L-alanyl}-amino-4-acetoxy-azetidin-2-one] were, in that order, 0.057 µM and 7.51 µM.
Consider `O=C(CCc1ccccc1)NC(Cc1ccc2ccccc2c1)C(=O)NC1C(=O)NC1Sc1ccccc1` [Example 15, (3S,4SR)-3-{N-(3-phenylpropionoyl)-β-(2-naphthyl)-L-alanyl}-amino-4-phenylthio-azetidin-2-one], for which the results for the IC50 in test [1] and in test [2] were 0.0061 µM and 1.91 µM, respectively.
Regarding `O=C(CCc1ccccc1)N[C@@H](Cc1ccc2ccccc2c1)C(=O)N[C@@H]1C(=O)NC1OCc1ccccc1` (stereo partly drawn) [Example 18, (3S,4SR)-3{N-(3-phenylpropionoyl)-β-(2-naphthyl)-L-alanyl}-amino-4-benzyloxy-azetidin-2-one], the figures for the IC50 in test [1] and in test [2] were 0.0767 µM and 1.92 µM, respectively.
The like results for `CC(=O)O[C@@H]1NC(=O)[C@H]1NC(=O)[C@H](Cc1ccccn1)NC(=O)OCc1ccccc1` [Example 6, (3S,4S)-3-(N-benzyloxycarbonyl-β-(2-pyridyl)-L-alanyl)-amino-4-acetoxy-azetidin-2-one] were, in that order, 12.1 µM and above 50 µM.
The like results for `N[C@@H](Cc1ccc(OC2NC(=O)[C@H]2NC(=O)[C@H](Cc2ccc3ccccc3c2)NC(=O)NCc2ccccc2)cc1)C(=O)O` (stereo partly drawn) [Example 22, (3S,4SR)-3-{N-(benzylaminocarbonyl)-β-(2-naphthyl)-L-alanyl}-amino-4-{4-(2S-2-amino-2-carboxy-ethyl)-phenoxy}-azetidin-2-one] were, in that order, 0.013 µM and 8.4 µM.
For `O=C(N[C@@H](Cc1ccc2ccccc2c1)C(=O)N[C@@H]1C(=O)N[C@H]1Oc1cccc(N2CCOCC2)c1)OCc1ccccc1` [Example 14A, (3S,4S)-3-{N-benzyloxycarbonyl-β-(2-naphthyl)-L-alanyl}amino-4-{3-(morpholin-4-yl)-phenoxy}-azetidin-2-one], in that order: 0.0027 µM and 1.7 µM.
